Values of other authors, collected in publication PMC8942822 (The Journal of Biological Chemistry, 2022).

What was measured:
[1] = biological target: T1, SpaASLH (SLH domain trimer of S-layer protein SpaA, wild-type) (Paenibacillus alvei, UniProt C1JZ07)
T1 sequence (C1JZ07 21-193): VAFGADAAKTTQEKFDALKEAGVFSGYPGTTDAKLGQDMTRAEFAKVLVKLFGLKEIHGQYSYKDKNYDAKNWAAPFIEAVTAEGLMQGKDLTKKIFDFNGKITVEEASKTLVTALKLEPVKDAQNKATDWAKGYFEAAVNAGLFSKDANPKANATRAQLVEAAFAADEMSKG

[2] = biological target: T2, SpaASLH/G109A (Paenibacillus alvei, UniProt C1JZ07, G109A)
T2 sequence (C1JZ07 21-193 G109A): T1 sequence (C1JZ07 21-193)

[3] = system: SpaASLH/G46A/G109A; conditions: 20 °C, SpaASLH/G46A/G109A double mutant, previously published
[4] = ITC, 20 °C, SpaASLH/G109A, previously published
[5] = ITC, 20 °C, SpaASLH wild-type, previously published

| SMILES | Binding by ITC ([1]; ITC experiments with internal-repeat SCWP disaccharide) | Decrease of ITC binding affinity, G109A mutant (G1 binding) vs wild-type [2] | KA [2, 4] | Kd [2, 4] | Stoichiometry [2, 4] | ΔG [2, 4] | ΔH [2, 4] | −TΔS [2, 4] | KA [1, 5] | Kd [1, 5] | Stoichiometry [1, 5] | ΔG [1, 5] | ΔH [1, 5] | −TΔS [1, 5] | Binding by ITC [3] |
| --- | --- | --- | --- | --- | --- | --- | --- | --- | --- | --- | --- | --- | --- | --- | --- |
| CO[C@@H]1O[C@@H]2CO[C@](C)(C(=O)O)O[C@H]2[C@H](O[C@@H]2O[C@H](CO)[C@@H](O)[C@H](O)[C@H]2NC(C)=O)[C@@H]1NC(C)=O [internal disaccharide, β-D-GlcNAc-(1→3)-4,6-Pyr-β-D-ManNAcOMe] | lack of corresponding measurable binding | – | – | – | – | – | – | – | – | – | – | – | – | – | – |
| CO[C@@H]1O[C@@H]2CO[C@](C)(C(=O)O)O[C@H]2[C@H](O)[C@@H]1NC(C)=O [monosaccharide, 4,6-Pyr-β-D-ManNAcOMe] | – | tenfold | 4.48 × 10^6 ± 0.62 M^−1 | 226 nM | 0.92 ± 0.04 | -8.917 ± 0.0789 kcal/mol | -12.1 ± 1.74 kcal/mol | 3.186 ± 1.67 kcal/mol | 3.48 × 10^7 ± 0.36 M^−1 | 29 nM | 0.91 ± 0.04 | -10.06 ± 0.155 kcal/mol | -21 ± 3.733 kcal/mol | 10.93 ± 3.826 kcal/mol | No binding |
